Reference: patent US20100227884A1 (priority 2007, published 2010)

Experiments:
Format in all cases: in vivo
Botrytis cinerea [1] = test: Test Example 2: curative effect on Botrytis disease of cucumber; conditions: cucumber (Sagami Hanjiro), wettable powder, 200 ppm foliar spray after inoculation, 12° C. for 2 days under high humidity
Method: (§1) The area of lesions on the test plants at testing was visually observed, and the control effect was evaluated by comparing the area of lesions on test plants treated with the invented compound with the area of lesions on untreated plants.
Test for showing curative effect on Botrytis disease of cucumber (Botrytis cinerea):
Sand soil was packed in a plastic pot, and seeds of cucumber (variety: Sagami Hanjiro) were sowed therein and grown for 12 days in a greenhouse. A PDA medium containing spores of Botrytis cinerea was placed on the surface of leaves of the cucumber to inoculate the surface of leaves of the cucumber. Then, the wettable powder of each of the invented compounds (1) and (2) and the comparative compound (A) was diluted with water to a concentration of 200 ppm and was sprayed onto the foliage of the cucumber so that a sufficient amount of the compound would be applied to the surface of leaves of the cucumber. After spraying, the plant was air-dried and left at 12° C. for 2 days under high humidity, and then the area of lesions was examined.
As a result, the lesion area on the plant treated with the invented compounds (1) and (2) was respectively less than 11% and less than 15% of the lesion area on the plant of untreated plant. The lesion area on the plant treated with the comparative compound (A) was 98% of the untreated plant.

Magnaporthe grisea = conditions: rice (Nihonbare), flowable formulation, 500 ppm foliar spray before inoculation, 5 days after inoculation
Botrytis cinerea [2] = test: Test Example 1: preventive effect on Botrytis disease of cucumber; conditions: cucumber (Sagami Hanjiro), flowable formulation, 200 ppm foliar spray before inoculation, 12° C. for 5 days under high humidity
Method: as §1
Test for showing preventive effect on Botrytis disease of cucumber (Botrytis cinerea):
Sand soil was packed in a plastic pot, and seeds of cucumber (variety: Sagami Hanjiro) were sowed therein and grown for 12 days in a greenhouse. Each of the invented compounds (1)-(5) and the comparative compound (A) was formulated into flowable formulation in accordance with Formulation Example 6, and it was diluted with water to a given concentration (200 ppm) and was sprayed onto the foliage of the cucumber so that a sufficient amount of the compound would be applied to the surface of leaves of the cucumber. After spraying, the plant was air-dried and PDA medium containing spores of Botrytis cinerea was placed on the surface of leaves of the cucumber. After the inoculation, the plant was left at 12° C. for 5 days under high humidity, and then the area of lesions was examined. As a result, the lesion area on the plant treated with the invented compounds (1)-(5) was less than 10% of the lesion area on the untreated plant. The lesion area on the plant treated with the comparative compound (A) was 98% of the untreated plant.

SMILES	lesion area on the treated plant as % of the lesion area on the untreated plant (Botrytis cinerea [1])	lesion area on the treated plant as % of the lesion area on the untreated plant (Magnaporthe grisea)	lesion area on the treated plant as % of the lesion area on the untreated plant (Botrytis cinerea [2])
COc1cccc(CNC(=O)c2ccc3ncccc3c2)c1F [invented compound (1), N-(2-fluoro-3-methoxyphenyl)methyl-quinoline-6-carboxamide]	less than 11%	–	–
CC(C)CCOc1cccc(CNC(=O)c2ccc3ncccc3c2)c1 [comparative compound (A), N-(3-(3-methylbutoxy)phenyl)methyl-quinoline-6-carboxamide]	98%	98%	98%
CCOc1cccc(CNC(=O)c2ccc3ncccc3c2)c1F [invented compound (2), N-(3-ethoxy-2-fluorophenyl)methyl-quinoline-6-carboxamide]	less than 15%	–	–
